Values joined by “and” are separate entries in the source; they are usually repeats but may differ in a detail not shown here. Identical values can stand only once. “Also recorded” adds a separate entry of the source.
What was measured:
[1] = QT interval (ΔQTcl) in opioid-dependent patients; assay type: in vivo, human; conditions: 60, 120, 180 mg, first 24 hours; correlated with serum concentration
Protocol: Patients' QT intervals were evaluated at regular time points throughout the study.

[2] = biological target: T1, OPRK (Homo sapiens, UniProt P41145); experiment: Activation and inhibition bias quantification G-protein/Beta-arrestin2
Protocol: Coupling efficiency (e-coupling) values indicated the relationship between the apparent binding affinity Ki versus the apparent functional potency EC50 of a given agonist ligand and used the equation pKi-pEC50. […] For inhibitory ligands, e-signal was calculated using maximal level of inhibition (Imax) normalized from 0 (basal, buffer) to 1 (agonist without inhibitor). Bias-coupling (quantification of pathway bias) was evaluated by subtracting the EC50 or the Ke issued from the G-protein pathway assays by those issued from β-arrestin pathway assays for a given ligand and in a linear (nM) scale. Bias-efficacy in favor of the G-protein pathway was evaluated by dividing the functional activation and the functional inhibition maximum responses (e-signal) from the G-protein pathway by the beta-arrestin pathway assays for a given ligand.

[3] = Safety and tolerability of noribogaine in healthy humans; assay type: in vivo, human
Protocol: Safety and tolerability of noribogaine were tested in the group of volunteers from Example 1. Cold pressor testing was conducted in 1° C. water according to the method of Mitchell et al. (J. Pain 5:233-237, 2004) pre-dose, 6, 24, 48, 72 and 216 hours post-dosing. Safety evaluations included clinical monitoring, recording of adverse events (AEs), safety laboratory tests, vital signs, ECG telemetry from −2 h to 6 h after dosing, and 12-lead electrocardiograms (ECGs) up to 216 hours post-dosing.

[4] = biological target: T1, OPRK; experiment: biochemical; parameters: purchased PerkinElmer Life Sciences (Boston, Mass.)
[5] = Time to resumption of OST and opiate withdrawal scales (COWS, SOWS, OOWS); assay type: in vivo, human; conditions: opioid-dependent patients
[6] = test system: OPRD: human opioid receptor delta; conditions: previously shown; cited from earlier work
[7] = biological target: T1, OPRK; experiment: cell-based; parameters: host or cells: CHO-K1
[8] = Ascending single-dose pharmacokinetics of noribogaine in healthy volunteers; conditions: for CL/F / Tmax: fasted healthy males, mean (SD), n = 6; for mean AUC/24 hr / mean AUC/24: fasting, serum
[9] = Treatment emergent adverse events in opioid-dependent participants (Phase IB)
[10] = 60 mg single dose, opioid-dependent patients, N = 6, events:subjects (%)
[11] = 120 mg single dose, opioid-dependent patients, N = 6, events:subjects (%)
[12] = 180 mg single dose, opioid-dependent patients, N = 6, events:subjects (%)

T1 sequence (P41145 whole entry): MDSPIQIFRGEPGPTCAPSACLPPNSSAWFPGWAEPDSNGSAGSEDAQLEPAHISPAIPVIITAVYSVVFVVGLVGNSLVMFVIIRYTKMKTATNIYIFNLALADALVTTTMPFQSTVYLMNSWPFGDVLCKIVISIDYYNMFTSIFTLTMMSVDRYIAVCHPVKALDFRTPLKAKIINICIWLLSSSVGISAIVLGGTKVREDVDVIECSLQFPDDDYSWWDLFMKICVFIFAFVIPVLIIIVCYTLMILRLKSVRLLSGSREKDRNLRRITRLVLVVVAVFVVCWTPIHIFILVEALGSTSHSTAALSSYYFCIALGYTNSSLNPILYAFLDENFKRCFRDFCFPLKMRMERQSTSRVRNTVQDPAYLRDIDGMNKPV

With CC[C@H]1CC2C[C@H]3c4[nH]c5ccc(O)cc5c4CCN(C2)C13 [Noribogaine] the “QT interval prolongation (ΔQTcl)” value [1] was “dose-dependent increase in QT interval prolongation”, the “Bias G-protein/Beta-arrestin2: Bias-coupling” value ([2]; Activation) was 32 and the “Bias G-protein/Beta-arrestin2: Bias-efficacy” value ([2]; Activation) was 0.59. For the same compound, the “Bias G-protein/Beta-arrestin2: Bias-efficacy” value ([2]; Inhibition) was −0.35, the “Bias G-protein/Beta-arrestin2: Bias-coupling” value ([2]; Inhibition (fold more potent at inhibiting Dynorphin A-induced β-arrestin-2 recruitment than G-protein activation)) was 144 and the adverse events reported ([3]; 3 mg dose group, healthy volunteers) was “five adverse events were reported by two subjects”. For the same compound, the adverse events reported ([3]; 10 mg dose group, healthy volunteers) was “one adverse event was reported by single subjects”, the adverse events reported ([3]; 30 mg dose group, healthy volunteers) was “one adverse event was reported by single subjects” and the “oximetry, capnography, respiratory rate” value ([3]; 3-60 mg, healthy volunteers) was “no changes in oximetry or capnography, or changes in respiratory rate”. For the same compound, the “vital signs and safety laboratory tests” value ([3]; 3-60 mg, healthy volunteers) was “no changes in vital signs or safety laboratory tests of note”, the “Adverse events: Mild” value ([3]; Dose 3 mg, healthy volunteers) was “Dizziness; also recorded: Epistaxis; also recorded: Headache; also recorded: Back pain” and the “Adverse events: Moderate” value ([3]; Dose 3 mg, healthy volunteers) was “Headache”. For the same compound, the “Adverse events: Mild” value ([3]; Dose 10 mg, healthy volunteers) was “Headache”, the “Adverse events: Mild” value ([3]; Dose 30 mg, healthy volunteers) was “Headache” and the QTcF values ([3]; any time, all dose groups 3-60 mg, healthy volunteers) was no more than 500 ms. The “single increase in QTcF” value ([3]; one subject dosed with 10 mg, 24 hours post-dosing) was greater than 60 ms, the “Efficacy (Emax)” value [4] was 72% and the “Efficacy (inhibition)” value [4] was 25%. For the same compound, the “G-protein Pathway e-coupling” value [4] was 1.72 and 1.08, the IC50 [4] was 100 to 300 µM and the e-coupling [4] was 1.08 and 1.22 and 1.72. For the same compound, the “own reduced signal level to which rival agonists are leveled down” value [4] was 70%, the EC50 ([4]; EC50) was 8.75 µM and 8.7 µM and the EC50 ([4]; EC50 (potency)) was 8.75 µM and 9 µM. For the same compound, the Kb ([4]; Ke) was 15 µM and 24 µM, the Kb ([4]; pEC50, pKe) was 12.6 µM and 39.8 µM and the Emax ([4]; read-out: maximal efficacy relative to Dynorphin A) was 75%. For the same compound, the “withdrawal symptoms (COWS, OOWS, SOWS) over first six hours” value ([5]; 120 mg) was “generally experienced fewer withdrawal symptoms than the other patients”, the “average time to resumption of opioids (OST)” value ([5]; single 120 mg dose) was “greater than 20 hours” and the “fold less affine at OPRD than at OPRK” value [6] was roughly 30 ×. The EC50 [7] was roughly 0.265 µM, the IC50 [7] was 1.45 ± 1.1 µM and the Kb [7] was 0.251 µM. The “Beta-Arrestin2 Pathway e-coupling” value ([7]; OPRK, Activation) was −0.43, the “Beta-Arrestin2 Pathway e-signal” value ([7]; OPRK, Activation) was 0.13 and the “inhibition of agonist response (up to)” value ([7]; OPRK, Dynorphin A at EC80) was roughly 60%. For the same compound, the IC50 ([7]; OPRK, Dynorphin A at EC80 (370 nM Dyn-A)) was 1.45 µM, the “Beta-Arrestin2 Pathway e-coupling” value ([7]; OPRK, Inhibition) was −0.44 and the “Beta-Arrestin2 Pathway e-signal” value ([7]; OPRK, Inhibition) was 0.60. The “Efficacy (Emax)” value ([7]; OPRK, activation, % of dynorphin A maximal stimulation) was 12% and 12.6%, the e-coupling ([7]; OPRK, activation, pKi-pEC50) was −0.43 and the Ke ([7]; OPRK, inhibition of Dynorphin A at EC80) was 262 nM. The e-coupling ([7]; OPRK, inhibitory component, pKi-pKe) was −0.44, the CL/F ([8]; 3 mg single oral dose) was 41.4 (7.0) L/h and the CL/F ([8]; 10 mg single oral dose) was 42.3 (12.0) L/h. For the same compound, the Tmax ([8]; 30 mg noribogaine single oral dose) was 1.75 h, the CL/F ([8]; 30 mg single oral dose) was 46.9 (16.4) L/h and the Tmax ([8]; 60 mg noribogaine single oral dose) was 1.75 h. For the same compound, the CL/F ([8]; 60 mg single oral dose) was 34.0 (11.4) L/h, the “Cmax and AUC versus dose” value ([8]; 3-60 mg single oral doses) was “increased linearly with dose” and the “time of peak concentrations after oral noribogaine dosing” value ([8]; across dose groups, healthy volunteers) was 2 to 3 h. The Mean half-life ([8]; across dose groups, healthy volunteers, plasma) was 28 to 50 h, the Vd ([8]; male, human, plasma, oral) was 1420 to 3090 L and the “mean AUC/24 hr” value ([8]; single dose of 3 mg noribogaine free base) was 3.1 ng/mL. For the same compound, the “mean AUC/24 hr” value ([8]; single dose of 10 mg noribogaine free base) was 10.6 ng/mL, the “mean AUC/24” value ([8]; single dose of 30 mg noribogaine free base) was 29.2 ng/mL and the “mean AUC/24” value ([8]; single dose of 60 mg noribogaine free base) was 61 ng/mL. The “TEAE: Catheter Site Infection” value [9, 10] was 0, the “TEAE: Catheter Site Pain” value [9, 10] was 0 and the “TEAE: Catheter Site Related Reaction” value [9, 10] was 0. For the same compound, the “TEAE: Cellulitis” value [9, 10] was 0, the “TEAE: Diarrhoea” value [9, 10] was 0 and the “TEAE: Dry Mouth” value [9, 10] was 0. For the same compound, the “TEAE: Ear and Labyrinth Disorders” value [9, 10] was 0, the “TEAE: Epistaxis” value [9, 10] was 0 and the “TEAE: Euphoric Mood” value [9, 10] was 0. For the same compound, the “TEAE: General Disorders and Administration Site Conditions” value [9, 10] was 0, the “TEAE: Hyperaesthesia” value [9, 10] was 0 and the “TEAE: Infections and Infestations” value [9, 10] was 0. The “TEAE: Limb Discomfort” value [9, 10] was 0, the “TEAE: Malaise” value [9, 10] was 0 and the “TEAE: Nausea” value [9, 10] was 0. For the same compound, the “TEAE: Oropharyngeal Pain” value [9, 10] was 0, the “TEAE: Pseudoparalysis” value [9, 10] was 0 and the “TEAE: Respiratory, Thoracic and Mediastinal Disorders” value [9, 10] was 0. The “TEAE: Rhinorrhoea” value [9, 10] was 0, the “TEAE: Skin Discomfort” value [9, 10] was 0 and the “TEAE: Skin Irritation” value [9, 10] was 0. The “TEAE: Skin and Subcutaneous Tissue Disorders” value [9, 10] was 0, the “TEAE: Somnoience” value [9, 10] was 0 and the “TEAE: Tinnitus” value [9, 10] was 0. For the same compound, the “TEAE: Tremor” value [9, 10] was 0, the “TEAE: Urinary Tract Infection” value [9, 10] was 0 and the “TEAE: Vomiting” value [9, 10] was 0. For the same compound, the “TEAE: Back Pain” value [9, 11] was 0, the “TEAE: Catheter Site Infection” value [9, 11] was 0 and the “TEAE: Catheter Site Related Reaction” value [9, 11] was 0. For the same compound, the “TEAE: Depressed Mood” value [9, 11] was 0, the “TEAE: Dry Eye” value [9, 11] was 0 and the “TEAE: Dyspepsia” value [9, 11] was 0. For the same compound, the “TEAE: Euphoric Mood” value [9, 11] was 0, the “TEAE: Limb Discomfort” value [9, 11] was 0 and the “TEAE: Malaise” value [9, 11] was 0. For the same compound, the “TEAE: Musculoskeletal and Connective Tissue Disorders” value [9, 11] was 0, the “TEAE: Psychiatric Disorders” value [9, 11] was 0 and the “TEAE: Somnoience” value [9, 11] was 0. The “TEAE: Urinary Tract Infection” value [9, 11] was 0, the “TEAE: Catheter Site Infection” value [9, 12] was 0 and the “TEAE: Catheter Site Pain” value [9, 12] was 0. The “TEAE: Depressed Mood” value [9, 12] was 0, the “TEAE: Diarrhoea” value [9, 12] was 0 and the “TEAE: Dry Eye” value [9, 12] was 0. The “TEAE: Dyspepsia” value [9, 12] was 0, the “TEAE: Ear and Labyrinth Disorders” value [9, 12] was 0 and the “TEAE: Epistaxis” value [9, 12] was 0. The “TEAE: Euphoric Mood” value [9, 12] was 0, the “TEAE: Hyperaesthesia” value [9, 12] was 0 and the “TEAE: Malaise” value [9, 12] was 0. For the same compound, the “TEAE: Oropharyngeal Pain” value [9, 12] was 0, the “TEAE: Pseudoparalysis” value [9, 12] was 0 and the “TEAE: Psychiatric Disorders” value [9, 12] was 0. For the same compound, the “TEAE: Respiratory, Thoracic and Mediastinal Disorders” value [9, 12] was 0, the “TEAE: Rhinorrhoea” value [9, 12] was 0 and the “TEAE: Skin Discomfort” value [9, 12] was 0. The “TEAE: Skin Irritation” value [9, 12] was 0, the “TEAE: Skin and Subcutaneous Tissue Disorders” value [9, 12] was 0 and the “TEAE: Somnoience” value [9, 12] was 0. For the same compound, the “TEAE: Tinnitus” value [9, 12] was 0, the “TEAE: Tremor” value [9, 12] was 0 and the hallucinatory effects ([9]; 60, 120, 180 mg single dose, opioid-dependent participants) was “no hallucinatory effects”.
